Results published in US20230040770A1, “HETEROCYCLIC COMPOUND AND USE THEREOF” (TAKEDA PHARMACEUTICAL COMPANY LIMITED, priority 2019, published 2023).

molecular target: T1, human orexin type 2 receptor (Homo sapiens, UniProt O43614); experiment: Measurement of orexin type 2 receptor agonist activity (calcium indicator fluorescence, CHO cells forcibly expressing human OX2 receptor); format: cell-based; settings: compound at 3 μM; 0% = DMSO, 100% = orexin A (human) 10 nM
T1 construct: expressed in transfected cells
T1 sequence (O43614 1-444): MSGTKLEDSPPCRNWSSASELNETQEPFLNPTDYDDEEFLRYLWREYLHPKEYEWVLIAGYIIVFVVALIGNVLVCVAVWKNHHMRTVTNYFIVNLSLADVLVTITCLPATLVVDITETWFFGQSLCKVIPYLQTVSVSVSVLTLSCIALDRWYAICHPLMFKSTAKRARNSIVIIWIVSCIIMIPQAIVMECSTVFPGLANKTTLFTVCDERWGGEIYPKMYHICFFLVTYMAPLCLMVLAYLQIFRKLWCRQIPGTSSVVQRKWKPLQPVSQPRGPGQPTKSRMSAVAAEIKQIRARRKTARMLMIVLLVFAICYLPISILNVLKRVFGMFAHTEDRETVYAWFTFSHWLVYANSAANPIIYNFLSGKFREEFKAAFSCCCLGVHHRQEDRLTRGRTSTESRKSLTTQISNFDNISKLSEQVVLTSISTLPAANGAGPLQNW
Outline: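 CHO-dhfr cells stably expressing human OX2R, loaded with Fluo-4 AM (30 min 37 °C, then 30 min RT), then given test compound. Calcium fluorescence read by FDSS over ~2 min. Activity (%) scaled from DMSO (0%) to 10 nM final orexin A (100%).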

Q: For `CCS(=O)(=O)N[C@H]1[C@@H](F)CN(C(=O)C2CCO2)[C@H]1Cc1cccc(-c2cccc(F)c2F)c1F` (stereo partly drawn) [Example 307, N-{(2S,3R,4S)-4-fluoro-1-(oxetane-2-carbonyl)-2-[(2,2′,3′-trifluoro[1,1′-biphenyl]-3-yl)methyl]pyrrolidin-3-yl}ethanesulfonamide], which “OX2R agonist activity (3 μM, %)” value is on record?
A: 100%

Q: How did the “OX2R agonist activity (3 μM, %)” value turn out when `CCS(=O)(=O)N[C@H]1[C@@H](F)CN(C(=O)C23CC(C2)C3)[C@H]1Cc1cccc(-c2ccccc2)c1F` [Example 308, N-{(2S,3R,4S)-1-(bicyclo[1.1.1]pentane-1-carbonyl)-4-fluoro-2-[(2-fluoro[1,1′-biphenyl]-3-yl)methyl]pyrrolidin-3-yl}ethanesulfonamide] was run?
A: 94%

Q: How did the “OX2R agonist activity (3 μM, %)” value turn out when `CC(C)C(=O)N1C[C@H](F)[C@H](NS(C)(=O)=O)[C@@H]1Cc1cccc(-c2cccc(F)c2F)c1F` [Example 314, N-{(2S,3R,4S)-4-fluoro-1-(2-methylpropanoyl)-2-[(2,2′,3′-trifluoro[1,1′-biphenyl]-3-yl)methyl]pyrrolidin-3-yl}methanesufonamide] was run?
A: 109%

Q: `CC(C)C(=O)N1C[C@H](F)[C@H](NS(C)(=O)=O)[C@@H]1Cc1cccc(-c2cc(F)cc(F)c2)c1F` [Example 316, N-{(2S,3R,4S)-4-fluoro-1-(2-methylpropanoyl)-2-[(2,3′,5′-trifluoro[1,1′-biphenyl]-3-yl)methyl]pyrrolidin-3-yl}methanesulfonamide] was tested. Which “OX2R agonist activity (3 μM, %)” value did it give?
A: 101%

Q: `CS(=O)(=O)N[C@H]1[C@@H](F)CN(C(=O)C2CCO2)[C@H]1Cc1cccc(-c2cccc(F)c2)c1F` (stereo partly drawn) [Example 323, N-[(2S,3R,4S)-2-[(2,3′-difluoro[1,1′-biphenyl]-3-yl)methyl]-4-fluoro-1-(oxetane-2-carbonyl)pyrrolidin-3-yl]methanesulfonamide] was tested. Which “OX2R agonist activity (3 μM, %)” value did it give?
A: 92%

Q: How did the “OX2R agonist activity (3 μM, %)” value turn out when `CS(=O)(=O)N[C@H]1[C@@H](F)CN(C(=O)C2CCO2)[C@H]1Cc1cccc(-c2cc(F)cc(F)c2)c1F` (stereo partly drawn) [Example 324, N-{(2S,3R,4S)-4-fluoro-1-(oxetane-3-2-carbonyl)-2-[(2,3′,5′-trifluoro[1,1′-biphenyl]-3-yl)methyl]pyrrolidin-3-yl}methanesulfonamide] was run?
A: 91%

Q: Which “OX2R agonist activity (3 μM, %)” value does the source give for `CS(=O)(=O)N[C@H]1[C@@H](F)CN(C(=O)C2CCO2)[C@H]1Cc1cccc(-c2cccc(Cl)c2)c1F` (stereo partly drawn) [Example 328, N-[(2S,3R,4S)-2-[(3′-chloro-2-fluoro[1,1′-biphenyl]-3-yl)methyl]-4-fluoro-1-(oxetane-2-carbonyl)pyrrolidin-3-yl]methanesulfonamide] here?
A: 86%

Q: For `CCS(=O)(=O)N[C@H]1[C@@H](F)CN(C(=O)N(C)C)[C@H]1Cc1cccc(-c2cc(F)cc(F)c2)c1F` [Example 329, (2S,3R,4S)-3-[(ethanesulfonyl)amino]-4-fluoro-N,N-dimethyl-2-[(2,3′,5′-trifluoro[1,1′-biphenyl]-3-yl)methyl]pyrrolidine-1-carboxamide], which “OX2R agonist activity (3 μM, %)” value is on record?
A: 88%

Q: With `CCS(=O)(=O)N[C@H]1[C@@H](F)CN(C(=O)N(C)C)[C@H]1Cc1cccc(-c2cccc(F)c2F)c1F` [Example 330, (2S,3R,4S)-3-[(ethanesulfonyl)amino]-4-fluoro-N,N-dimethyl-2-[(2,2′,3′-trifluoro[1,1′-biphenyl]-3-yl)methyl]pyrrolidine-1-carboxmaide] as the compound, how does the “OX2R agonist activity (3 μM, %)” value read?
A: 98%

Q: `CCS(=O)(=O)N[C@H]1[C@@H](F)CN(C(=O)N(C)C)[C@H]1Cc1cccc(-c2cccc(Cl)c2)c1F` [Example 332, (2S,3R,4S)-2-[(3′-chloro-2-fluoro[1,1′-biphenyl]-3-yl)methyl]-3-[(ethanesulfonyl)amino]-4-fluoro-N,N-dimethylpyrrolidine-1-carboxamide] was tested. Which “OX2R agonist activity (3 μM, %)” value did it give?
A: 95%

Q: For `CCS(=O)(=O)N[C@H]1[C@@H](F)CN(C(=O)N(C)C)[C@H]1Cc1cccc(-c2cccc(C)c2)c1F` [Example 333, (2S,3R,4S)-3-[(ethanesulfonyl)amino]-4-fluoro-2-[(2-fluoro-3′-methyl[1,1′-biphenyl]-3-yl)methyl]-N,N-dimethylpyrrolidine-1-carboxamide], which “OX2R agonist activity (3 μM, %)” value is on record?
A: 78%

Q: How did the “OX2R agonist activity (3 μM, %)” value turn out when `CN(C)C(=O)N1C[C@H](F)[C@H](NS(=O)(=O)N(C)C)[C@@H]1Cc1cccc(-c2cccc(F)c2)c1F` [Example 344, (2S,3R,4S)-2-[(2,3′-difluoro[1,1′-biphenyl]-3-yl)methyl]-3-[(dimethylsulfamoyl)amino]-4-fluoro-N,N-dimethylpyrrolidine-1-carboxamide] was run?
A: 102%

Q: With `CCS(=O)(=O)N[C@H]1[C@@H](F)CN(C(=O)C(C)(C)O)[C@H]1Cc1cccc(-c2cc(F)cc(Cl)c2)c1F` [Example 345, N-[(2S,3R,4S)-2-[(3′-chloro-2,5′-difluoro[1,1′-biphenyl]-3-yl)methyl]-4-fluoro-1-(2-hydroxy-2-methylpropanoyl)pyrrolidin-3-yl]ethanesulfonamide] as the compound, how does the “OX2R agonist activity (3 μM, %)” value read?
A: 92%

Q: With `CCS(=O)(=O)N[C@H]1[C@@H](F)CN(C(=O)C(C)(C)O)[C@H]1Cc1cccc(-c2cccc(Cl)c2)c1F` [Example 346, N-[(2S,3R,4S)-2-[(3′-chloro-2-fluoro[1,1′-biphenyl]-3-yl)methyl]-4-fluoro-1-(2-hydroxy-2-methylpropanoyl)pyrrolidin-3-yl]ethanesulfonamide] as the compound, how does the “OX2R agonist activity (3 μM, %)” value read?
A: 93%

Q: Which “OX2R agonist activity (3 μM, %)” value does the source give for `CCS(=O)(=O)N[C@H]1[C@@H](F)CN(C(=O)C(C)(C)O)[C@H]1Cc1cccc(-c2cccc(Cl)c2F)c1F` [Example 347, N-[(2S,3R,4S)-2-[(3′-chloro-2,2′-difluoro[1,1′-biphenyl]-3-yl)methyl]-4-fluoro-1-(2-hydroxy-2-methylpropanoyl)pyrrolidin-3-yl]ethanesulfonamide] here?
A: 102%

Q: `CCS(=O)(=O)N[C@H]1[C@@H](F)CN(C(=O)C(C)(C)O)[C@H]1Cc1cccc(-c2cc(Cl)ccc2F)c1F` [Example 348, N-[(2S,3R,4S)-2-[(5′-chloro-2,2′-difluoro[1,1′-biphenyl]-3-yl)methyl]-4-fluoro-1-(2-hydroxy-2-methylpropanoyl)pyrrolidin-3-yl]ethanesulfonamide] was tested. Which “OX2R agonist activity (3 μM, %)” value did it give?
A: 103%

Q: With `CCS(=O)(=O)N[C@@H]1[C@H](Cc2cccc(-c3cccc(F)c3F)c2F)N(C(=O)C2CC(F)C2)CC1(F)F` (stereo partly drawn) [Example 349, N-{(2S,3R)-4,4-difluoro-1-(3-fluorocyclobutane-1-carbonyl)-2-[(2,2′,3′-trifluoro[1,1′-biphenyl]-3-yl)methyl]pyrrolidin-3-yl}ethanesulfonamide] as the compound, how does the “OX2R agonist activity (3 μM, %)” value read?
A: 98%

Q: With `CCS(=O)(=O)N[C@@H]1[C@H](Cc2cccc(-c3cc(F)ccc3F)c2F)N(C(=O)C2CCO2)CC1(F)F` (stereo partly drawn) [Example 356, N-{(2S,3R)-4,4-difluoro-1-(oxetane-2-carbonyl)-2-[(2,2′,5′-trifluoro[1,1′-biphenyl]-3-yl)methyl]pyrrolidin-3-yl}ethanesulfonamide] as the compound, how does the “OX2R agonist activity (3 μM, %)” value read?
A: 97%

Q: `CCS(=O)(=O)N[C@H]1[C@@H](F)CN(C(=O)C23CC(C2)C3)[C@H]1Cc1cccc(-c2cc(F)cc(F)c2)c1F` [Example 365, N-{(2S,3R,4S)-1-(bicyclo[1.1.1]pentane-1-carbonyl)-4-fluoro-2-[(2,3′,5′-trifluoro[1,1′-biphenyl]-3-yl)methyl]pyrrolidin-3-yl}ethanesulfonamide] was tested. Which “OX2R agonist activity (3 μM, %)” value did it give?
A: 93%

Q: How did the “OX2R agonist activity (3 μM, %)” value turn out when `CCS(=O)(=O)N[C@H]1[C@@H](F)CN(C(=O)C23CC(C2)C3)[C@H]1Cc1cccc(-c2cccc(F)c2F)c1F` [Example 366, N-{(2S,3R,4S)-1-(bicyclo[1.1.1]pentane-1-carbonyl)-4-fluoro-2-[(2,2′,3′-trifluoro[1,1′-biphenyl]-3-yl)methyl]pyrrolidin-3-yl}ethanesulfonamdie] was run?
A: 96%

Q: `CCS(=O)(=O)N[C@H]1[C@@H](F)CN(C(=O)C2CCO2)[C@H]1Cc1cccc(-c2cccc(Cl)c2)c1F` (stereo partly drawn) [Example 368, N-[(2S,3R,4S)-2-[(3′-chloro-2-fluoro[1,1′-biphenyl]-3-yl)methyl]-4-fluoro-1-(oxetane-2-carbonyl)pyrrolidin-3-yl]ethanesulfonamide] was tested. Which “OX2R agonist activity (3 μM, %)” value did it give?
A: 95%

Q: Which “OX2R agonist activity (3 μM, %)” value does the source give for `CC(C)(O)C(=O)N1C[C@H](F)[C@H](NS(=O)(=O)C2CC2)[C@@H]1Cc1cccc(-c2cccc(F)c2)c1F` [Example 369, N-[(2S,3R,4S)-2-[(2,3′-difluoro[1,1′-biphenyl]-3-yl)methyl]-4-fluoro-1-(2-hydroxy-2-methylpropanoyl)pyrrolidin-3-yl]cyclopropanesulfonamide] here?
A: 85%

Q: `CC(C)(O)C(=O)N1C[C@H](F)[C@H](NS(=O)(=O)C2CC2)[C@@H]1Cc1cccc(-c2cc(F)cc(F)c2)c1F` [Example 370, N-{(2S,3R,4S)-4-fluoro-1-(2-hydroxy-2-methylpropanoyl)-2-[(2,3′,5′-trifluoro[1,1′-biphenyl]-3-yl)methyl]pyrrolidin-3-yl}cyclopropanesulfonamide] was tested. Which “OX2R agonist activity (3 μM, %)” value did it give?
A: 91%

Q: `CC(C)(O)C(=O)N1C[C@H](F)[C@H](NS(=O)(=O)C2CC2)[C@@H]1Cc1cccc(-c2cccc(F)c2F)c1F` [Example 371, N-{(2S,3R,4S)-4-fluoro-1-(2-hydroxy-2-methylpropanoyl)-2-[(2,2′,3′-trifluoro[1,1′-biphenyl]-3-yl)methyl]pyrrolidin-3-yl}cyclopropanesulfonamide] was tested. Which “OX2R agonist activity (3 μM, %)” value did it give?
A: 94%
